The IC50 is the concentration that gives 50% inhibition. A lower IC50 goes with higher potency.

Molecules are shown by their SMILES.

p300 HAT domain (residues 1287-1666), sequence (Q09472 1287-1666): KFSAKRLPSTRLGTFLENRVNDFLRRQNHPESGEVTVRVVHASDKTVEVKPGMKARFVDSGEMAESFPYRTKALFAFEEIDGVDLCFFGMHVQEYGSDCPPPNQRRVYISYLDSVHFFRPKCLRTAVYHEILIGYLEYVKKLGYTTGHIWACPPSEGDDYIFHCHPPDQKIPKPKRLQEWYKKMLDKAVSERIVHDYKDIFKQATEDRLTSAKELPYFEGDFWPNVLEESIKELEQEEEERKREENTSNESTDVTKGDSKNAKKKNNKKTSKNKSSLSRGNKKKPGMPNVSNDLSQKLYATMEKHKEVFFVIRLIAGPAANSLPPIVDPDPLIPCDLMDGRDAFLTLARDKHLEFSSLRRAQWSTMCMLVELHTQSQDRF

The assay has as its target p300 HAT domain (residues 1287-1666) (Homo sapiens (Human), UniProt Q09472). Nature of the assay: p300 HAT SPA assay (scintillation proximity assay, acetylation of biotinylated H3(1-21) peptide). Type of assay: biochemical. As to conditions: average of at least 2 replicate titrations. As to the method: In a typical experiment the p300 HAT inhibitory activity of the compounds described herein was determined in accordance with the following experimental method.
The expressed protein was purified by Ni2+ affinity, followed by anion exchange chromatography. Appropriate fractions were pooled and buffer exchanged into 20 mM Hepes pH 7.5, 150 mM NaCl, and 1 mM TCEP.
35 μL of the reaction volume was transferred to a 384-well streptavidin FlashPlate (PerkinElmer) using a Bravo liquid handler (Velocity 11) and incubated for 1.5 hr at RT. […] Data were analyzed in Genedata to determine inhibitor IC50 values.
The compound `COc1cccc(C(NCCc2ccc(C#N)cc2)C(=O)Nc2ccc(-c3cnn(C)c3)cn2)c1` (single isomer, unassigned) [70 Isomer 2] yielded an IC50 of 243 nM.
`CN1CCN(c2ccc(NC(=O)C(NCCc3ccc(C#N)cc3)c3ccccc3)nc2)CCC1=O` (single isomer, unassigned) [71 Isomer 1] returned a half-inhibitory concentration (IC50) of 86.9 nM.
As for `CN1CCN(c2ccc(NC(=O)C(NCCc3ccc(C#N)cc3)c3ccccc3)nc2)CCC1=O` (single isomer, unassigned) [71 Isomer 2], the figure is > 2000 nM; as for `Cc1ncn(-c2ccc(NC(=O)C(NCCc3ccc(C#N)cc3)c3ccccc3)nc2)n1` (single isomer, unassigned) [73 Isomer 1], > 2000 nM; as for `Cc1ncn(-c2ccc(NC(=O)C(NCCc3ccc(C#N)cc3)c3ccccc3)nc2)n1` (single isomer, unassigned) [73 Isomer 2], 197 nM.
Under `CCN1CCN(c2ccc(NC(=O)C(NCCc3ccc(C#N)cc3)c3ccccc3)nc2)C1=O` (single isomer, unassigned) [76 Isomer 1] stands 88 nM; under `CCN1CCN(c2ccc(NC(=O)C(NCCc3ccc(C#N)cc3)c3ccccc3)nc2)C1=O` (single isomer, unassigned) [76 Isomer 2], > 2000 nM; under `N#Cc1ccc(CCNC(C(=O)Nc2ccc(N3CCC(F)(F)C3)cn2)c2ccccc2)cc1` (single isomer, unassigned) [77 Isomer 1], 39.4 nM.
`N#Cc1ccc(CCNC(C(=O)Nc2ccc(N3CCC(F)(F)C3)cn2)c2ccccc2)cc1` (single isomer, unassigned) [77 Isomer 2] gave an IC50 of 1980 nM.
Compound `Cc1cn(-c2ccc(NC(=O)C(NCCc3ccc(C#N)cc3)c3ccccc3)nc2)nn1` (single isomer, unassigned) [78 Isomer 1] returned an IC50 of 296 nM.
Under `Cc1cn(-c2ccc(NC(=O)C(NCCc3ccc(C#N)cc3)c3ccccc3)nc2)nn1` (single isomer, unassigned) [78 Isomer 2] stands > 2000 nM.
As for `Cn1cc(-c2ccc(NC(=O)C(NCCc3ccc(C#N)cc3)c3cccc(Cl)c3)nc2)cn1` (single isomer, unassigned) [79 Isomer 1], the figure is > 2000 nM.
Consider `Cn1cc(-c2ccc(NC(=O)C(NCCc3ccc(C#N)cc3)c3cccc(Cl)c3)nc2)cn1` (single isomer, unassigned) [79 Isomer 2], for which the 50% inhibitory concentration (IC50) was 97.7 nM.
As for `N#Cc1ccc(CCNC(C(=O)Nc2ccc(N3CC4(COC4)C3)cn2)c2ccccc2)cc1` (single isomer, unassigned) [80 Isomer 1], the figure is 201 nM; as for `N#Cc1ccc(CCNC(C(=O)Nc2ccc(N3CC4(COC4)C3)cn2)c2ccccc2)cc1` (single isomer, unassigned) [80 Isomer 2], > 2000 nM.
Compound `N#Cc1ccc(CCNC(C(=O)Nc2ccc(N3CCOCC3)cn2)c2ccccc2)cc1` (single isomer, unassigned) [81 Isomer 1] showed an IC50 of 139 nM.
As for `N#Cc1ccc(CCNC(C(=O)Nc2ccc(N3CCOCC3)cn2)c2ccccc2)cc1` (single isomer, unassigned) [81 Isomer 2], the IC50 was > 2000 nM.
Under `CC(CNC(C(=O)Nc1ccc(-c2cnn(C)c2)cc1)c1ccccc1)c1ccc(C#N)cc1` (single isomer, unassigned) [82 Isomer 1] stands > 5000 nM; under `CC(CNC(C(=O)Nc1ccc(-c2cnn(C)c2)cc1)c1ccccc1)c1ccc(C#N)cc1` (single isomer, unassigned) [82 Isomer 2], > 5000 nM.
Compound `CC(CNC(C(=O)Nc1ccc(-c2cnn(C)c2)cc1)c1ccccc1)c1ccc(C#N)cc1` (single isomer, unassigned) [82 Isomer 3] had an IC50 of 604 nM.
In the case of `CC(CNC(C(=O)Nc1ccc(-c2cnn(CC(F)(F)F)c2)cn1)c1ccccc1)c1ccc(C#N)cc1` (single isomer, unassigned) [83 Isomer 1], the IC50 is > 2000 nM.
Regarding `CC(CNC(C(=O)Nc1ccc(-c2cnn(CC(F)(F)F)c2)cn1)c1ccccc1)c1ccc(C#N)cc1` (single isomer, unassigned) [83 Isomer 2], the IC50 was > 2000 nM.

(Values after patent US11274090B2, “P300/CBP HAT inhibitors” (Constellation Pharmaceuticals, Inc., priority 2018, dated 2022).)
